# Experimental data published in patent US11304956B2, “Use of 7-bromo-5-(O-chlorophenyl)-3-propoxy-1,2-dihydro-3H-1,4-benzodiazepin-2-one for inhibition of neuropathic pain and seizures of different etiology” (priority 2016, dated 2022).
# How the values were obtained:
# [1] = tested on: pentylenetetrazole-induced convulsions; assay: Pentylenetetrazole-induced seizures; format: in vivo, non-linear male mice; settings: Mus musculus, sc; mice; pentylenetetrazole 120 mg/kg subcutaneously; interval (0.83-0.97) printed on the next line; read-out: Anticonvulsive activity (ED50), Pentylenetetrazole
# Text: In many cases, the presence of anticonvulsant (antiepileptic) effect of the compounds correlates with analgesic properties on corresponding models of neuralgia. As a general step is a primary screening of new anticonvulsant compounds on rodents with the help of pentylenetetrazole test and MES (maximal electroshock seizures) as they have a qualitative difference in development and manifestations of seizures. It is believed that the compound ability to prevent the MES-induced seizures is connected with impulse spread inhibition throughout the central nervous system. It is believed that the ability to prevent the MES-induced seizures development indicates the potential efficacy of the compound in the preventing propagation of a pulse along the neural tissue (see Tompson E. Medicines. Bioscreening/Under the editorship of A. V. Stefanova.-K.: Avitsenna, 1998.—250 p.).
# The experiments were performed on non-linear male mice weighing 19-29 g. Pentylenetetrazole was administered subcutaneously in the cervical region of the back. […]
# For MES-induced seizures experimental animals were exposed to electric stimulation through the corneal electrodes (50 Hz, 50 mA for mice during 0.2 s). The number of animals with the maximum tonic extension of the hind limbs, which occurs in almost 100% of the animals in the control group, was calculated. […]
# [2] = tested on: carrageenan rat paw edema; assay: Carrageenan rat paw edema; format: in vivo, male white rats
# Text: Given the fact that Compound 1 affects not only the painful, but also the inflammatory phase, we undertook an in-depth study of its anti-inflammatory effect. The most common screening method of anti-inflammatory activity is the model of inflammatory edema of the rat hind paw, induced by the subplantar administration of various phlogogenic agents. Under the conditions of carrageenan administration, a sufficiently pronounced edema reaction is observed, which slowly develops and persists for a long time. The maximum size of edema is observed in 2-4 hours.
# The anti-inflammatory properties of the test compounds were studied in the model of carrageenan rat paw edema. Male white rats weighing 150-180 g were used in the experiments. Before the administration of the experimental substances, the volumes of the rats' paws subsequently injected by phlogogen were measured. The test compounds and the reference drug—diclofenac-sodium, were administered intraperitoneally 40 minutes prior the inflammation induction. The control group of the rats received an equivalent amount of physiological solution in the emulsion with Tween-80. Acute aseptic inflammation was induced by a 1% aqueous solution of 0.1 ml)—carrageenan injection under plantar aponeurosis of the hind paw of animals of the experimental and control groups (see Trinus F. P. Nonsteroidal anti-inflammatory drugs/F. P. Trinus, N. A. Mohort, B. M. Klebanov//K., 1975, pp. 204-231., Winter C. A. Carrageenin—induced edema in hind paw of the rat as an assay for antiinflammatory drugs/C. A. Winter, E. A. Risley, G. V. Nuss//Proc. Soc. Exp. Biol. Med.—1962.—Vol. 111.—P. 544-547). The inflammatory reaction significance was evaluated after two and four hours after the phlogogen injection. Registration of edema size was carried out by mechanical measurement of foot volume in dynamics according to Zakharevsky A. S. (see Zaharevskiy A. S. The influence of some indole derivatives on the nervous system. Diss. cand. med. science/Zaharevskiy Aleksandr Stepanovich-Minsk.—1969.—78-80 p.). The edema extent was estimated according to the difference in volume between the swollen paw and the paw before inflammation induction. The anti-inflammatory efficacy of the test compounds was determined as the ability of the test compounds to suppress the inflammatory response in the experimental animals compared to the control animals and expressed as a percentage. The calculation was carried out according to the following formula:
# The percentage of inflammation suppression=(ΔVκ−ΔV ? /ΔVκ)·100%,
# where: ΔVκ—the average increase in the volume of the swollen paw in the control;
# ΔV ? —the average increase in the volume of the swollen paw in animals injected by experimental substances.
# [3] = tested on: model of neuropathic pain in rats; assay: Model of neuropathic pain (sciatic nerve ligation), threshold of pain sensitivity by dolorimeter; format: in vivo, male Wistar rats; settings: for Changes in the threshold of pain perception, regarding healthy limb: damaged vs healthy limb before administration (baseline); for Threshold of pain sensitivity, damaged limb / Threshold of pain sensitivity, healthy limb: day 14 after ligation, before administration (baseline), M±m, n=10; for Threshold of pain sensitivity 2 hours after compounds administration: damaged limb
# Protocol: An evaluation of the antinociceptive action of the test compound (1) on a model of neuropathic pain was carried out on 50 male Wistar rats weighing 270-310 g. The model of neuropathic pain was reproduced by ligation of the sciatic nerve at the level of the upper third of the thigh at the level of the popliteal fossa higher than the site of its trifurcation by N. tibialis, N. peroneus and N. suralis (see Mironov A. N. et al. Guidelines for conducting preclinical studies of drugs. Part one.—Moscow 2012. p. 197-219). The development of the pathological process lasted 14 days. The degree of hyperalgesia was determined using a dolorimeter (Dolorimeter Baseline, USA) by determining the threshold of pain sensitivity (TPS)—the minimum pressure on the lower surface of the rat's foot (g/mm^2), which caused pain in the animal (vocalization and/or withdrawal of the foot). Each animal was given 5 attempts; the threshold value was taken with such a pressure force, which caused a positive response in at least one attempt. The threshold of pain sensitivity was compared on intact and damaged limbs on day 14 after ligation (pathology without treatment), as well as on the injured limb after 2 hours (peak of action) after the drugs administration. The test compound and the reference drug (ketorolac) were administered intragastrally (as gavage) once at doses of 0.5 and 3 mg/kg. Sciatic nerve ligation in animals caused the development of neuropathic pain syndrome, which manifested itself in behavioral reactions of the rat and lowering the threshold of pain sensitivity by an average of 44-48% (see Table 1). The analgesic effect of Compound 1 compared with ketorolac under the conditions of their intragastral administration on the model of neuropathic pain in rats (M±m, n=10, where n is the number of animals in the experiments) is shown in Table 1.
# [4] = 3.0 mg/kg intraperitoneally 40 min before carrageenan
# [5] = 10.0 mg/kg intraperitoneally 40 min before carrageenan
smiles,measurement,setting,value
"CCCOC1N=C(c2ccccc2Cl)c2cc(Br)ccc2NC1=O (stereo not shown) [Compound 1, 7-bromo-5-(o-chlorophenyl)-3-propoxy-1,2-dihydro-3H-1,4-benzodiazepin-2-one]",ED50,[1],0.91 mg/kg
same,Inhibition of edema in 2 hours (%),[2]; [4],36.7 ± 4.1 %
same,Inhibition of edema in 4 hours (%),[2]; [4],25.00 ± 2.7 %
same,Inhibition of edema in 2 hours (%),[2]; [5],47.0 ± 4.1 %
same,Inhibition of edema in 4 hours (%),[2]; [5],26.70 ± 5.4 %
same,"Changes in the threshold of pain perception, regarding healthy limb",[3]; 0.5 mg/kg group,−48.4 ± 4.6%
same,"Threshold of pain sensitivity, damaged limb",[3]; 0.5 mg/kg group,223.5 ± 20.1 g/mm^2
same,"Threshold of pain sensitivity, healthy limb",[3]; 0.5 mg/kg group,434.3 ± 13.4 g/mm^2
same,Threshold of pain sensitivity 2 hours after compounds administration,[3]; 0.5 mg/kg intragastrally once,269.3 ± 19.4 g/mm^2
same,"Changes in the threshold of pain perception, regarding healthy limb",[3]; 3 mg/kg group,−44.3 ± 2.9%
same,"Threshold of pain sensitivity, damaged limb",[3]; 3 mg/kg group,295.7 ± 29.9 g/mm^2
same,"Threshold of pain sensitivity, healthy limb",[3]; 3 mg/kg group,523.6 ± 28.1 g/mm^2
same,Threshold of pain sensitivity 2 hours after compounds administration,[3]; 3 mg/kg intragastrally once,532.8 ± 47.1 g/mm^2
